Laboratory results from paper PMC10272271, “MAM-2201 acute administration impairs motor, sensorimotor, prepulse inhibition, and memory functions in mice: a comparison with its analogue AM-2201” (Psychopharmacology, 2023).

How the values were obtained:
CD-1 male mice = experiment: Novel Object Recognition (NOR) test; type: in vivo, mouse
Method: This test was performed according to the method reported by Ennaceur and Delacour ([1988]) and Antunes and Biala (2012). The test was conducted in three phases: habituation, familiarization, and choice. Firstly, CD-1 mice (n = 10/group) were subjected to a 3-day habituation phase, conducted by placing each animal into the NOR chamber (a square open field 60 cm × 60 cm × 40 cm, dark PVC plastic box) located in a dimly lit (50 lx), sound-attenuated and acclimatized room. Mice were allowed to explore freely for 20 min/day. No objects were placed in the box during the habituation trial. Twenty-four hours (h) after last habituation section, the familiarization trial was conducted by placing the mouse in the field in which two identical objects (A, A) were positioned in the corners of the arena approximately 6 cm from the walls. Mice were placed at the mid-point of the wall opposite to the objects and allowed to explore them for 15 min. Fifteen minutes after the familiarization phase, mice were injected with vehicle or drug (MAM-2201 and AM-2201) and tested in two consecutive choice sections performed 2 h (short-term memory) and 24 h (long-term memory) after the drug administration. During the choice test at 2 h, one of the two familiar objects (A) was replaced with a new one (novel; B), different in shape, dimension, and color. Each mouse was then placed in the apparatus and left free to explore the objects (A and B) for 5 min. In the choice test given at 24 h, the mice explored the open field for 5 min in the presence of one familiar (A) and one novel object (C, different from B). Exploration was defined as the time (s) during which the mouse nose was in contact with the object or directed toward it at a distance ≤ 2 cm. Turning around the object was not considered as exploratory behavior.
All experiments were performed using the ANY-maze video tracking system (Ugo Basile, application version 4.99 g Beta) and subsequently analyzed by an observer blind to the mouse treatment and to which object was the novel one. Exploration time of familiar (A) and novel (B) object was detected. The novel object preference was quantified as the Recognition Index (RI) calculated as: RI=novelB-familiarA/novelB+familiarA. Using this metric, scores approaching zero reflects no preference (impairment of recognition memory), positive values reflect preference for the novel object (good recognition memory) while negative numbers reflect preference for the familiar (impairment of recognition memory). Moreover, the total exploration time (s) spent by the animal in the choice phase at 2 h (familiar A + novel B) and 24 h (familiar A + novel C) was calculated to investigate the effect of drugs on object exploration.
The objects to be discriminated by mice were 7 sets of novel and familiar objects of different material (plastic, glass, or ceramic), shape (cube, parallelepiped, and cylinder), dimension (height: 3–8 cm; width: 6–8), and color (light yellow, red and blue). The set of objects used in the familiarization phase (two identical A, A objects) was used in the subsequent vehicle/drug conditions at 2 and 24 h. The choice of object for novel or familiar was counterbalanced and the position of each object was also alternated between trials to avoid any misinterpretation of data. The object weight was such that they could not be displaced by mice. To avoid mice olfactory cues, objects and apparatus were carefully cleaned with a dilute (5%) ethanol solution and water between animal trials and also between familiarization and choice phase (executed 2 and 24 h after the familiarization phase). Animals that spent less than 10 s exploring both objects were excluded from the study and replaced by other animals.

CB2 receptors = molecular target: CB2 receptors; design: method as in Howlett et al. [2002]; Hess et al. [2015]; settings: ref Howlett et al. [2002]; Hess et al. [2015]; read-out: CB2 receptor Ki; cited from earlier work
murine CB1 receptors = molecular target: T1, murine CB1 receptors (Mus musculus, UniProt P47746); experiment: [3H]-CP-55,940 competition binding, mouse brain (cortex) membranes; settings: for selectivity index (ratio Ki CB2 / Ki CB1): murine CB receptors
T1 construct: membranes from mouse brain and spleen were used, respectively; from tissue
Method: To evaluate the affinity of synthetic cannabinoids for murine CB1 and CB2 receptors, membranes from mouse brain and spleen were used, respectively. Following excision from mice, tissues were suspended in 50 mM Tris HCl, pH 7.4 at 4 °C. The mouse brain and spleen tissues were homogenized with a Polytron and subsequently centrifuged for 10 min at 2000 × g. The resulting supernatants were filtered, centrifuged for 20 min at 40,000 × g and the pellets were used for competition binding experiments (Vincenzi et al. [2013]).
Competition binding experiments were carried out incubating 0.5 nM [^3H]-CP-55,940 (Perkin Elmer Life and Analytical Sciences, USA) and different concentrations of the tested compounds for 90 or 60 min at 30 °C for CB1 or CB2 receptors, respectively. For human cannabinoid receptors, membranes obtained from CHO cells transfected with human CB1 or CB2 receptors (2 µg protein/100 µl) were used. Competition binding experiments at murine cannabinoid receptors were performed with mouse brain membranes (40 µg protein/100 µl) or with mouse spleen membranes (80 µg protein/100 µl) for CB1 receptors or CB2 receptors, respectively. Non-specific binding was determined in the presence of 1 mM WIN 55,212–2 (Vincenzi et al. [2013]). Bound and free radioactivity were separated by filtering the assay mixture through Whatman GF/C glass fiber filters using a Brandel cell harvester (Brandel Instruments, Unterföhring, Germany). The filter-bound radioactivity was counted using a Packard Tri Carb 2810 TR scintillation counter (Perkin Elmer Life and Analytical Sciences, USA).
The protein concentration was determined according to a Bio-Rad method (500–0006; Bio-Rad Laboratories, Hercules, CA, USA) with bovine serum albumin as a reference standard. Inhibitory binding constants, Ki, were calculated from the IC50 values according to the Cheng and Prusoff equation: Ki = IC50/(1 + [C*]/KD*), where [C*] is the concentration of the radioligand and KD* its dissociation constant. Functional experiments were analyzed by non-linear regression analysis using the equation for a sigmoid concentration–response curve (GraphPad Prism, USA). All the data are expressed as the mean ± SEM of three independent experiments.

T1 sequence (P47746 whole entry): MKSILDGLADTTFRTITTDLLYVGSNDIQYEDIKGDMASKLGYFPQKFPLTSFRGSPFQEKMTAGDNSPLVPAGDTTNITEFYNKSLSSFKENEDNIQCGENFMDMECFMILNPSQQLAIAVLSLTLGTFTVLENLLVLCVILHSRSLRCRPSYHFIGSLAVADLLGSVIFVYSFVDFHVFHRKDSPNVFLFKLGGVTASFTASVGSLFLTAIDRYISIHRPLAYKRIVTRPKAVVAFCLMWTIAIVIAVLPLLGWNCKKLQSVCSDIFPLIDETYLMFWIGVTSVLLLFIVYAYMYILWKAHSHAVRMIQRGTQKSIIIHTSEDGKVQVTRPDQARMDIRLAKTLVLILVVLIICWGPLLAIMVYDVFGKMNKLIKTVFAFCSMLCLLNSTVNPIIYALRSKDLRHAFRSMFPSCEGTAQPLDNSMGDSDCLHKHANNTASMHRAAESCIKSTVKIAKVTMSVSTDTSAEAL

| SMILES | effect on Total Object Exploration (TOE) time (CD-1 male mice; 0.1 mg/kg i.p.) | effect on Recognition Index (RI) (CD-1 male mice; 0.1 mg/kg i.p., 2 h) | effect on Total Object Exploration (TOE) time (CD-1 male mice; 1 mg/kg i.p., 2 and 24 h) | effect on Recognition Index (RI) (CD-1 male mice; 1 mg/kg i.p., 2 h) | effect on Recognition Index (RI) (CD-1 male mice; 0.1 and 1 mg/kg i.p., 24 h) | Ki (CB2 receptors) [nM] | Ki (murine CB1 receptors) [nM] | selectivity index (ratio Ki CB2 / Ki CB1) (murine CB1 receptors) |
| --- | --- | --- | --- | --- | --- | --- | --- | --- |
| O=C(c1cccc2ccccc12)c1cn(CCCCCF)c2ccccc12 [AM-2201, 1-[(5-Fluoropentyl)-1H-indol-3-yl](1-naphthylenyl) methanone] | did not alter | RI reduction | impaired | reversal | significant reduction | 2.6 | 1.96 ± 0.13 | 7.4 |
| Cc1ccc(C(=O)c2cn(CCCCCF)c3ccccc23)c2ccccc12 [MAM-2201, 1-[(5-fluoropentyl)-1H-indol-3-yl](4-methyl-1-naphthalenyl) methanone] | did not alter | significantly reduced | impaired | negative score | significant decrease | 0.582 ± 0.123 | 1.07 ± 0.23 | 9.0 |
